Assay results: publication PMC5865651, “Novel inhibitor candidates of TRPV2 prevent damage of dystrophic myocytes and ameliorate against dilated cardiomyopathy in a hamster model” (Oncotarget, 2018)
Read-outs that look alike come from different tables or passages of the source.

Experiments:
hTRPC1 = target: T1, hTRPC1 (Homo sapiens, UniProt P48995); assay: Store-operated Ca2+ entry after thapsigargin in hTRPC1-transfected HEK293 cells; type: cell-based
T1 construct: expressed in transfected cells; host or cells: HEK293 cells
T1 sequence (P48995 whole entry): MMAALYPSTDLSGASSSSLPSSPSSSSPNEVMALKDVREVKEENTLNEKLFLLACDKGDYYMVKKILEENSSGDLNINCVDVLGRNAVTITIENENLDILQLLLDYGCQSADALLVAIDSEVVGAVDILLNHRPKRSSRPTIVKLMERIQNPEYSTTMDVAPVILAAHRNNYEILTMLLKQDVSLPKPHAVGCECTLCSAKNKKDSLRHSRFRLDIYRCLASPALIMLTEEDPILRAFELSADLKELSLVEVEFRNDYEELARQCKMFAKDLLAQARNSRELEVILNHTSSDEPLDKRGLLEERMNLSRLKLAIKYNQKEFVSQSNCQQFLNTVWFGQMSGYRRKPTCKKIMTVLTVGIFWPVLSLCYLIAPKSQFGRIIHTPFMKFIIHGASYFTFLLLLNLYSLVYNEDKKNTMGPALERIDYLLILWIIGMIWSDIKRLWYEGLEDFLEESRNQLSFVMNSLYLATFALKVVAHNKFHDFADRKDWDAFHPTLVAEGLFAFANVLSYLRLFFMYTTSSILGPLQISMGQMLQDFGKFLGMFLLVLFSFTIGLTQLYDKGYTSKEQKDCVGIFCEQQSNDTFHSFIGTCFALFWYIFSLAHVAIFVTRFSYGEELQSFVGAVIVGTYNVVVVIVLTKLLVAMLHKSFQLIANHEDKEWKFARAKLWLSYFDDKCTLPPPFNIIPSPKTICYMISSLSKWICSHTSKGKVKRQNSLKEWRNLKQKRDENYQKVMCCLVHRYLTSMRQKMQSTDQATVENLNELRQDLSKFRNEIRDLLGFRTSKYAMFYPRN
Description: (§1) Figure 4 Effects of inhibitor compounds on the Ca^2+ response of cells expressing hTRPV1, hTRPV2, or hTRPC1 (A) Effect of compounds on CaCl2 (5 mM)-induced peak fluorescence ratio in non-transfected (nt) or hTRPV2-transfected CHO cells. The extracellular Ca^2+-dependent increase in the ratio of fura-2 fluorescence intensity at 340/380 nm (ΔR, 2 min after addition of chemicals) was plotted as ΔR/R0 after normalising to the initial fluorescence ratio (R0). […] Solid bar, no inhibitor. (B) Effect of compounds on 2-APB (1 mM)/high extracellular CaCl2-induced peak fluorescence ratio in nt or hTRPV1-transfected HEK293 cells. […] (C) Effect of compounds on store-operated Ca^2+ entry in nt or hTRPC1-transfected HEK293 cells. Cells were treated with the endoplasmic reticulum Ca^2+ pump inhibitor thapsigargin and exposed to CaCl2 and the indicated compounds. ΔR was measured 2 min after the addition of CaCl2. […] Data are shown as mean ± SD (n = 5).
[Ca^2+]i was measured by a ratiometric fluorescence method as previously described. […] Fura-2-AM fluorescence was measured using an Aquacosmos fluorescence image processor (Hamamatsu Photonics, Hamamatsu, Japan). The time-course data are presented as the ratio of fluorescence at an excitation wavelength of 340 nm to that at 380 nm. The increase in the fluorescence ratio induced by the TRPV2 agonist 2-APB or high extracellular Ca^2+ (ΔR) was normalized to the initial ratio (R0) before stimulation. The fluorescence relative ratio (ΔR/R0) was plotted as the summary data in the fluorescence imaging analysis.

hTRPV1 = target: T2, hTRPV1 (Homo sapiens, UniProt Q8NER1); assay: 2-APB/high extracellular CaCl2-induced increase in [Ca2+]i in hTRPV1-transfected HEK293 cells; type: cell-based
T2 construct: expressed in transfected cells; host or cells: HEK293 cells
T2 sequence (Q8NER1 whole entry): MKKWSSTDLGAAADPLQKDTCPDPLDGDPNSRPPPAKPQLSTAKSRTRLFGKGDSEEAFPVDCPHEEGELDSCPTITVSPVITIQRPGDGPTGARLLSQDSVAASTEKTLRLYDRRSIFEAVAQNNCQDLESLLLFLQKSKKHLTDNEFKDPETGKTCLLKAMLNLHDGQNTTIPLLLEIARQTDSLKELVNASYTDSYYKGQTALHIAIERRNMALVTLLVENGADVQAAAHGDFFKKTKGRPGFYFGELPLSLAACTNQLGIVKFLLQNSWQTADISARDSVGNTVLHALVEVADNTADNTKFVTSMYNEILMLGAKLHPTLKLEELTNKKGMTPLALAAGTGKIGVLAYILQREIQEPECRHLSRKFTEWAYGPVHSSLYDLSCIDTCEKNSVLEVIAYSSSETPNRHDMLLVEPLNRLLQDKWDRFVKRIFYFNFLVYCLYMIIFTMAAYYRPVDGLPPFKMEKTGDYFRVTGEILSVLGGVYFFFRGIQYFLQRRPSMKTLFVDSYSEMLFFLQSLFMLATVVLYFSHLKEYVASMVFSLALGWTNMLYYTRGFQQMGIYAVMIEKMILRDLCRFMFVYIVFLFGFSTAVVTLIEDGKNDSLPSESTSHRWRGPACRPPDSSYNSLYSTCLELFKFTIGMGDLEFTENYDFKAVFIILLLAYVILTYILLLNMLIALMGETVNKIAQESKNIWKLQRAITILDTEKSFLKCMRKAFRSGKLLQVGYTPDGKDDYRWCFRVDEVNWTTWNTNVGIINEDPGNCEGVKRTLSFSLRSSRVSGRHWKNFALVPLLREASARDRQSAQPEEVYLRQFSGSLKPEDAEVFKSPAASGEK
Description: as §1
[Ca^2+]i was measured by a ratiometric fluorescence method as previously described. Briefly, HEK293 cells were loaded with 4 μM fura-2-AM for 30 min at 37° C and maintained in balanced salt solution (BSS) (146 mM NaCl, 4 mM KCl, 2 mM MgCl2, 0.5 mM CaCl2, 10 mM glucose, 0.1% bovine serum albumin, and 10 mM HEPES/Tris, pH 7.4). Fura-2-AM fluorescence was measured using an Aquacosmos fluorescence image processor (Hamamatsu Photonics, Hamamatsu, Japan). The time-course data are presented as the ratio of fluorescence at an excitation wavelength of 340 nm to that at 380 nm. The increase in the fluorescence ratio induced by the TRPV2 agonist 2-APB or high extracellular Ca^2+ (ΔR) was normalized to the initial ratio (R0) before stimulation. The fluorescence relative ratio (ΔR/R0) was plotted as the summary data in the fluorescence imaging analysis.

[1] = system: cardiomyopathic J2N-k hamsters; assay: Cardiomyopathy in J2N-k hamsters in vivo (echocardiography, serum cTN-I, Masson's trichrome fibrosis); design: species or system hamster; details: 3 weeks
Description: Male δ-SG-deficient cardiomyopathic J2N-k and age-matched wild-type J2N-n hamsters (9 weeks old) were purchased from Japan SLC, Inc. (Shizuoka, Japan). Tranilast was ingested mixed with feed (300 mg/kg/day) as described previously, whereas other drugs (Figure 1) were administered orally in the drinking water at doses of 30 mg/kg (except lumin) per day for 3 weeks. In case of lumin, we first performed dose-dependent experiment at dose of 1,10 and100 mg/kg per day for 3 weeks, in order to determine the effective dose. […] After drug treatment, serum cardiac troponin (cTN)-I was measured and echocardiography analysis was performed. Histochemistry of cardiac muscles was performed as previously described. All animal experiments were performed according to the Guidelines for Animal Experimentation of the National Cerebral and Cardiovascular Center Research Institute.
Ventricles were fixed in phosphate-buffered saline containing 10% formalin and embedded in paraffin. Serial sections were cut at a thickness of 5 μm and stained with Masson's trichrome stain for morphological analysis. Sections were viewed under a BX41 light microscope (Olympus, Tokyo, Japan). Images were acquired with an FX380 digital camera (Olympus) and analysed using an FLVFS-LS imaging system (Flovel, Tokyo, Japan).
Fibrosis was assessed by measuring Masson's trichrome-positive areas. Briefly, colour images were converted to binary form by setting the threshold value so as to detect only blue-stained fibrotic areas, which were summed and reported as a percentage of the total.
Cardiac function was evaluated by echocardiography using a Sonos5500 ultrasound system (Hewlett-Packard, Palo Alto, CA, USA) with a 12-MHz transducer and M-mode imaging. The animals were sedated with tribromoethanol (350 mg/kg by intraperitoneal injection) during the process.
Creatine phosphokinase (CK) activity in the medium was determined using an in vitro colorimetric assay kit (CK Test Kit; Wako Pure Chemical Industries, Ltd., Osaka, Japan) according to the manufacturer's protocol The cTN-I level in the serum was measured, while quantitative immunoblotting and immunocytochemistry were performed as previously described. Protein concentration was measured using the bicinchoninic acid assay (Pierce Chemical Co., Rockford, IL, USA) with bovine serum albumin as the standard. All histochemical and physiological analyses were performed by investigators blinded to the drug treatments. Unless otherwise stated, results are presented as the mean ± SD of at least 5 determinations. The unpaired Student's t-test and one-way ANOVA followed by Dunnett's test were used to analyse the data. Values of P < 0.05 (indicated as asterisks in the figures) were considered statistically significant. All cellular measurements were repeated at least 5 times. Representative data are shown.

[2] = hTRPC1-transfected HEK293 cells, thapsigargin, compound 15 μM
[3] = hTRPV1-transfected HEK293 cells, 2-APB 1 mM/high CaCl2, compound 15 μM
[4] = 30 mg/kg per day orally in drinking water
[5] = unpublished observation, concentration not given

increase in [Ca2+]i via TRPV1 (hTRPV1; [3]) | effect on store-operated increase in [Ca2+]i (hTRPC1) | increase in [Ca2+]i via TRPC1 (hTRPC1; [5]) | increase in [Ca2+]i via TRPV1 (hTRPV1; [5]) | SMILES | effect on store-operated increase in [Ca2+]i (hTRPC1; [2]) | effect on fractional shortening (FS) [1, 4] | effect on left ventricular end-diastolic dimension (LVDd) [1, 4] | effect on left ventricular end-systolic dimension (LVDs) [1, 4] | effect on serum level of cTN-I [1, 4] | effect on cardiac dysfunction (increased LVDs, reduced ejection fraction, decreased fractional shortening) ([1]; 10 mg/kg per day orally) | effect on fibrotic area ([1]; 10 mg/kg per day orally) | effect on the decrease in wall thickness ([1]; 10 mg/kg per day orally) | effect on fibrosis (Masson's trichrome) [1, 4]
unaffected | – | – | – | COc1cccc(OCCn2cc(/C=N/n3cnnc3)c3ccccc32)c1 [B6, 1-{2-[3-((1E)-2-(1,2,4-triazol-4-yl)-2-azavinyl)indolyl]ethoxy}-3-methoxybenzene] | neither A3, A48, A63, nor B6 had any effect | prevented | small effect | prevented the increase | reduced | – | – | – | –
– | inhibited | – | – | NCCOB(c1ccccc1)c1ccccc1 [2-APB, 2-aminoethoxydiphenylborate] | – | – | – | – | – | – | – | – | –
– | – | did not affect | did not affect | CCN1C=CC(=CC=C(C=Cc2cc[n+](CC)c3ccccc23)c2cc[n+](CC)c3ccccc23)c2ccccc21.[I-].[I-] [lumin, 4,4′-[3-[2-[1-ethyl-4(1H)-quinolinylidene]ethylidene]-1-propene-1,3-diyl]bis(1-ethylquinolinium) diiodide] | – | – | – | – | – | prevented | reduced | partially prevented | –
unaffected | – | – | – | COc1cc(/C=C(\C#N)C(=O)Nc2ccccc2C(=O)O)cc(Cl)c1OC [A3, 2-[(2E)-3-(3-Chloro-4,5-dimethoxyphenyl)-2-cyanoprop-2-enoylamino]benzoic acid] | neither A3, A48, A63, nor B6 had any effect | prevented | small effect | prevented the increase | reduced | – | – | – | prevented fibrosis
